Test results as given in US20160159789A1, “SUBSTITUTED PYRAZOLOPYRIDINES” (BAYER PHARMA AKTIENGESELLSCHAFT, priority 2013, published 2016).

Target: T1, human full-length MKNK1 (Homo sapiens, UniProt Q9BUB5, T385D)
T1 construct: purchased Carna Biosciences 02-145; host or cells: insect cells (baculovirus expression system)
Assay: MKNK1 kinase high ATP assay (TR-FRET)
Type: biochemical
Details: high ATP (2 mM final), 15 min preincubation with enzyme, GST-MKNK1 (T344D)
Description: MKNK1-inhibitory activity at high ATP of compounds of the present invention after their preincubation with MKNK1 was quantified employing the TR-FRET-based MKNK1 high ATP assay as described in the following paragraphs.
A recombinant fusion protein of Glutathione-S-Transferase (GST, N-terminally) and human full-length MKNK1 (amino acids 1-424 and T344D of accession number BAA 19885.1), expressed in insect cells using baculovirus expression system and purified via glutathione sepharose affinity chromatography, was purchased from Carna Biosciences (product no 02-145) and used as enzyme. As substrate for the kinase reaction the biotinylated peptide biotin-Ahx-IKKRKLTRRKSLKG (C-terminus in amide form) was used, which can be purchased e.g. from the company Biosyntan (Berlin-Buch, Germany).
For the assay 50 nL of a 100 fold concentrated solution of the test compound in DMSO was pipetted into a black low volume 384 well microtiter plate (Greiner Bio-One, Frickenhausen, Germany), 2 μL of a solution of MKNK1 in aqueous assay buffer [50 mM HEPES pH 7.5, 5 mM MgCl2, 1.0 mM dithiothreitol, 0.005% (v/v) Nonidet-P40 (Sigma)] was added and the mixture was incubated for 15 min at 22° C. to allow pre-binding of the test compounds to the enzyme before the start of the kinase reaction. Then the kinase reaction was started by the addition of 3 μL of a solution of adenosine-tri-phosphate (ATP, 3.3 mM=> final conc. in the 5 μL assay volume is 2 mM) and substrate (0.1 μM=> final conc. in the 5 μL assay volume is 0.06 μM) in assay buffer and the resulting mixture was incubated for a reaction time of 30 min at 22° C. The concentration of MKNK1 was adjusted depending of the activity of the enzyme lot and was chosen appropriate to have the assay in the linear range, typical concentrations were in the range of 0.003 μg/mL. The reaction was stopped by the addition of 5 μL of a solution of TR-FRET detection reagents (5 nM streptavidine-XL665 [Cisbio Bioassays, Codolet, France] and 1 nM anti-ribosomal protein S6 (pSer236)-antibody from Invitrogen [#44921G] and 1 nM LANCE EU-W1024 labeled ProteinG [Perkin-Elmer, product no. AD0071]) in an aqueous EDTA-solution (100 mM EDTA, 0.1% (w/v) bovine serum albumin in 50 mM HEPES pH 7.5).
The resulting mixture was incubated for 1 h at 22° C. to allow the formation of complex between the phosphorylated biotinylated peptide and the detection reagents. Subsequently the amount of phosphorylated substrate was evaluated by measurement of the resonance energy transfer from the Eu-chelate to the streptavidine-XL. Therefore, the fluorescence emissions at 620 nm and 665 nm after excitation at 350 nm were measured in a TR-FRET reader, e.g. a Rubystar (BMG Labtechnologies, Offenburg, Germany) or a Viewlux (Perkin-Elmer). The ratio of the emissions at 665 nm and at […] was taken as the measure for the amount of phosphorylated substrate. The data were normalised (enzyme reaction without inhibitor=0% inhibition, all other assay components but no enzyme=100% inhibition).

T1 sequence (Q9BUB5 1-424 isoform Q9BUB5-2 T344D): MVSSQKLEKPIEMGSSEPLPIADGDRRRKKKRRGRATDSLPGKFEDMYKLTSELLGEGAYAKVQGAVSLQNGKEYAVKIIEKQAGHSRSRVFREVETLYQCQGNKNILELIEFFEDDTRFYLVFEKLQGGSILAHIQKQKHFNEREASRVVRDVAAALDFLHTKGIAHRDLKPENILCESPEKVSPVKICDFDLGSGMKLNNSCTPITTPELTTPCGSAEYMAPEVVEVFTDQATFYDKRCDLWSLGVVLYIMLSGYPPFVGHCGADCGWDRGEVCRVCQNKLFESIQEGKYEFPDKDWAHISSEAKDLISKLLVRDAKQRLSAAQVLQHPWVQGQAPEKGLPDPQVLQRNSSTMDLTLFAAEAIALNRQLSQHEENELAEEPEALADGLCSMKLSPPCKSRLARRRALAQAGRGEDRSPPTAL

Row | SMILES | IC50 [nM]
1 | C[C@H]1COCCN1C(=O)c1[nH]c2ncnc(Nc3cc4cn[nH]c4cn3)c2c1Br [Example 121, [5-Bromo-4-(1H-pyrazolo[3,4-c]pyridin-5-ylamino)-7H-pyrrolo[2,3-d]pyrimidin-6-yl][(3S)-3-methylmorpholin-4-yl]methanone] | 30.1
2 | O=C(c1[nH]c2ncnc(Nc3cnc4[nH]ncc4c3)c2c1Br)N1CCCCC1 [Example 61, [5-Bromo-4-(1H-pyrazolo[3,4-b]pyridin-5-ylamino)-7H-pyrrolo[2,3-d]pyrimidin-6-yl](piperidin-1-yl)methanone] | 120
3 | CN(CCC(F)(F)F)C(=O)[C@H]1CCc2c(sc3ncnc(Nc4cnc5[nH]ncc5c4)c23)C1 [Example 94, (7S)—N-Methyl-4-(1H-pyrazolo[3,4-b]pyridin-5-ylamino)-N-(3,3,3-trifluoropropyl)-5,6,7,8-tetrahydro[1]benzothieno[2,3-d]pyrimidine-7-carboxamide] | 8.2
4 | CN(C)C(=O)c1nc2c(Nc3cnc4[nH]ncc4c3)ncnc2s1 [Example 123, N,N-Dimethyl-7-(1H-pyrazolo[3,4-b]pyridin-5-ylamino)[1,3]thiazolo[5,4-d]pyrimidine-2-carboxamide] | 230
5 | C[C@@H]1COCCN1C(=O)c1[nH]c2ncnc(Nc3cc4cn[nH]c4cn3)c2c1Br [Example 70, [5-Bromo-4-(1H-pyrazolo[3,4-c]pyridin-5-ylamino)-7H-pyrrolo[2,3-d]pyrimidin-6-yl][(3R)-3-methylmorpholin-4-yl]methanone] | 40.7
6 | CCc1c[nH]c2ncnc(Nc3cc4cn[nH]c4cn3)c12 [Example 6, N-(5-Ethyl-7H-pyrrolo[2,3-d]pyrimidin-4-yl)-1H-pyrazolo[3,4-c]pyridin-5-amine] | 7.3
7 | CN(C)CCN(C)C(=O)c1[nH]c2ncnc(Nc3cc4cn[nH]c4nc3O)c2c1Br [Example 63, 5-Bromo-N-[2-(dimethylamino)ethyl]-4-[(6-hydroxy-1H-pyrazolo[3,4-b]pyridin-5-yl)amino]-N-methyl-7H-pyrrolo[2,3-d]pyrimidine-6-carboxamide] | 14.6
8 | O=C(c1[nH]c2ncnc(Nc3cc4cn[nH]c4nc3O)c2c1Br)N1CCOCC1 [Example 68] | 10.1
9 | CN(C)C1CCN(C(=O)c2[nH]c3ncnc(Nc4cc5cn[nH]c5nc4O)c3c2Br)CC1 [Example 65] | 2.8
10 | COc1nc2[nH]ncc2cc1Nc1ncnc2[nH]c(C(=O)N(C)CCN(C)C)c(Br)c12 [Example 62, 5-Bromo-N-[2-(dimethylamino)ethyl]-4-[(6-methoxy-1H-pyrazolo[3,4-b]pyridin-5-yl)amino]-N-methyl-7H-pyrrolo[2,3-d]pyrimidine-6-carboxamide] | 12
11 | O=C(c1[nH]c2ncnc(Nc3cc4cn[nH]c4cn3)c2c1Br)N1CCOCC1 [Example 71, [5-Bromo-4-(1H-pyrazolo[3,4-c]pyridin-5-ylamino)-7H-pyrrolo[2,3-d]pyrimidin-6-yl](morpholin-4-yl)methanone] | 43.2
12 | CCOC(=O)c1[nH]c2ncnc(Nc3cnc4[nH]ncc4c3)c2c1Br [Example 12, Ethyl 5-bromo-4-(1H-pyrazolo[3,4-b]pyridin-5-ylamino)-7H-pyrrolo[2,3-d]pyrimidine-6-carboxylate] | 5
13 | CN(C)C(=O)CCN(C)C(=O)c1nc2c(Nc3cnc4[nH]ncc4c3)ncnc2s1 [Example 129, N-[3-(Dimethylamino)-3-oxopropyl]-N-methyl-7-(1H-pyrazolo[3,4-b]pyridin-5-ylamino)[1,3]thiazolo[5,4-d]pyrimidine-2-carboxamide] | 4290

Now from value to molecule:

Row | IC50 [nM] | SMILES
14 | 2.1 | CN1CCN(C(=O)[C@H]2CCc3c(sc4ncnc(Nc5cc6cn[nH]c6nc5O)c34)C2)CC1 [Example 116]
15 | 13.8 | CN1CCN(C(=O)C2CCc3c(sc4ncnc(Nc5cnc6[nH]ncc6c5)c34)C2)CC1 (racemic) [Example 25, (RS)-(4-Methylpiperazin-1-yl)[4-(1H-pyrazolo[3,4-b]pyridin-5-ylamino)-5,6,7,8-tetrahydro[1]benzothieno[2,3-d]pyrimidin-7-yl]methanone]
16 | 2.1 | COc1nc2[nH]ncc2cc1Nc1ncnc2sc3c(c12)CC[C@H](C(=O)N1CCN(C)CC1)C3 [Example 42]
17 | 3.1 | CN(C)C1CCN(C(=O)[C@H]2CCc3c(sc4ncnc(Nc5cc6cn[nH]c6cn5)c34)C2)CC1 [Example 91, [4-(Dimethylamino)piperidin-1-yl][(7S)-4-(1H-pyrazolo[3,4-c]pyridin-5-ylamino)-5,6,7,8-tetrahydro[1]benzothieno[2,3-d]pyrimidin-7-yl]methanone]
18 | 1 | CCN(C)C(=O)[C@H]1CCc2c(sc3ncnc(Nc4cc5cn[nH]c5nc4OC)c23)C1 [Example 39, (7S)—N-Ethyl-4-[(6-methoxy-1H-pyrazolo[3,4-b]pyridin-5-yl)amino]-N-methyl-5,6,7,8-tetrahydro[1]benzothieno[2,3-d]pyrimidine-7-carboxamide]
19 | 5.2 | CN1CCN(C(=O)[C@H]2CCc3c(sc4ncnc(Nc5cc6cn[nH]c6cn5)c34)C2)CC1 [Example 90, (4-Methylpiperazin-1-yl)[(7S)-4-(1H-pyrazolo[3,4-c]pyridin-5-ylamino)-5,6,7,8-tetrahydro[1]benzothieno[2,3-d]pyrimidin-7-yl]methanone]
20 | 10.5 | C[C@H]1COCCN1C(=O)[C@H]1CCc2c(sc3ncnc(Nc4cc5cn[nH]c5cn4)c23)C1 [Example 87, [(3S)-3-Methylmorpholin-4-yl][(7S)-4-(1H-pyrazolo[3,4-c]pyridin-5-ylamino)-5,6,7,8-tetrahydro[1]benzothieno[2,3-d]pyrimidin-7-yl]methanone]
21 | 0.5 | COc1nc2[nH]ncc2cc1Nc1ncnc2sc3c(c12)CC[C@H](C(=O)N(C)C)C3 [Example 53, (7S)-4-[(6-Methoxy-1H-pyrazolo[3,4-b]pyridin-5-yl)amino]-N,N-dimethyl-5,6,7,8-tetrahydro[1]benzothieno[2,3-d]pyrimidine-7-carboxamide]
22 | 2.6 | CCCN(CCOC)C(=O)[C@H]1CCc2c(sc3ncnc(Nc4cc5cn[nH]c5nc4O)c23)C1 [Example 50, (7S)-4-[(6-Hydroxy-1H-pyrazolo[3,4-b]pyridin-5-yl)amino]-N-(2-methoxyethyl)-N-propyl-5,6,7,8-tetrahydro[1]benzothieno[2,3-d]pyrimidine-7-carboxamide]
23 | 38.2 | CN1CCN(C(=O)C2CCc3c(sc4ncnc(Nc5cc6cn[nH]c6cn5)c34)C2)CC1 (racemic) [Example 26, (RS)-(4-Methylpiperazin-1-yl)[4-(1H-pyrazolo[3,4-c]pyridin-5-ylamino)-5,6,7,8-tetrahydro[1]benzothieno[2,3-d]pyrimidin-7-yl]methanone]
24 | 6 | CCCCN(C)C(=O)[C@H]1CCc2c(sc3ncnc(Nc4cc5cn[nH]c5nc4O)c23)C1 [Example 52, (7S)—N-Butyl-4-[(6-hydroxy-1H-pyrazolo[3,4-b]pyridin-5-yl)amino]-N-methyl-5,6,7,8-tetrahydro[1]benzothieno[2,3-d]pyrimidine-7-carboxamide]
25 | 2.4 | CN(C)C1CN(C(=O)[C@H]2CCc3c(sc4ncnc(Nc5cc6cn[nH]c6cn5)c34)C2)C1 [Example 140, 10 [3-(Dimethylamino)azetidin-1-yl][(7S)-4-(1H-pyrazolo[3,4-c]pyridin-5-ylamino)-5,6,7,8-tetrahydro[1]benzothieno[2,3-d]pyrimidin-7-yl]methanone]
